Experimental data: ChEMBL document CHEMBL4219199, “Synthesis and evaluation of aminobenzothiazoles as blockers of N- and T-type calcium channels” (Bioorg Med Chem, 2018)

Columns and labels:
[1] = target: Voltage-dependent N-type calcium channel subunit alpha-1B (Homo sapiens, UniProt Q00975); experiment: Inhibition of Cav2.2 in human SH-SY5Y cells assessed as decrease in KCl-induced calcium mobilization measured after 600 secs post compound addition and 300 secs post KCl addition in presence of CaV1 blocker nifedipine by calcium 4 dye-based FLIPR assay; assay type: cell-based
[2] = target: Voltage-dependent T-type calcium channel subunit alpha-1H (Homo sapiens, UniProt O95180); experiment: Inhibition of recombinant human Cav3.2-alpha1 expressed in HEK293T cells assessed as decrease in KCl-induced calcium mobilization measured after 600 secs post compound addition and 300 secs post KCl addition by calcium 4 dye-based FLIPR assay; assay type: cell-based
[3] = Metabolic stability in rat plasma assessed as parent compound remaining at 120 uM after 24 hrs by HPLC analysis relative to control; assay type: ADME, cell-free; conditions: read-out: Stability
[4] = Half life in rat plasma; assay type: ADME, cell-free
[5] = target: Voltage-dependent N-type calcium channel subunit alpha-1B (Rattus norvegicus, UniProt Q02294); experiment: Displacement of [125I]GVIA from rat brain membrane Cav2.2 after 1 hr by gamma counting method

Chain of Voltage-dependent N-type calcium channel subunit alpha-1B (Homo sapiens, UniProt Q00975) (Q00975 whole entry): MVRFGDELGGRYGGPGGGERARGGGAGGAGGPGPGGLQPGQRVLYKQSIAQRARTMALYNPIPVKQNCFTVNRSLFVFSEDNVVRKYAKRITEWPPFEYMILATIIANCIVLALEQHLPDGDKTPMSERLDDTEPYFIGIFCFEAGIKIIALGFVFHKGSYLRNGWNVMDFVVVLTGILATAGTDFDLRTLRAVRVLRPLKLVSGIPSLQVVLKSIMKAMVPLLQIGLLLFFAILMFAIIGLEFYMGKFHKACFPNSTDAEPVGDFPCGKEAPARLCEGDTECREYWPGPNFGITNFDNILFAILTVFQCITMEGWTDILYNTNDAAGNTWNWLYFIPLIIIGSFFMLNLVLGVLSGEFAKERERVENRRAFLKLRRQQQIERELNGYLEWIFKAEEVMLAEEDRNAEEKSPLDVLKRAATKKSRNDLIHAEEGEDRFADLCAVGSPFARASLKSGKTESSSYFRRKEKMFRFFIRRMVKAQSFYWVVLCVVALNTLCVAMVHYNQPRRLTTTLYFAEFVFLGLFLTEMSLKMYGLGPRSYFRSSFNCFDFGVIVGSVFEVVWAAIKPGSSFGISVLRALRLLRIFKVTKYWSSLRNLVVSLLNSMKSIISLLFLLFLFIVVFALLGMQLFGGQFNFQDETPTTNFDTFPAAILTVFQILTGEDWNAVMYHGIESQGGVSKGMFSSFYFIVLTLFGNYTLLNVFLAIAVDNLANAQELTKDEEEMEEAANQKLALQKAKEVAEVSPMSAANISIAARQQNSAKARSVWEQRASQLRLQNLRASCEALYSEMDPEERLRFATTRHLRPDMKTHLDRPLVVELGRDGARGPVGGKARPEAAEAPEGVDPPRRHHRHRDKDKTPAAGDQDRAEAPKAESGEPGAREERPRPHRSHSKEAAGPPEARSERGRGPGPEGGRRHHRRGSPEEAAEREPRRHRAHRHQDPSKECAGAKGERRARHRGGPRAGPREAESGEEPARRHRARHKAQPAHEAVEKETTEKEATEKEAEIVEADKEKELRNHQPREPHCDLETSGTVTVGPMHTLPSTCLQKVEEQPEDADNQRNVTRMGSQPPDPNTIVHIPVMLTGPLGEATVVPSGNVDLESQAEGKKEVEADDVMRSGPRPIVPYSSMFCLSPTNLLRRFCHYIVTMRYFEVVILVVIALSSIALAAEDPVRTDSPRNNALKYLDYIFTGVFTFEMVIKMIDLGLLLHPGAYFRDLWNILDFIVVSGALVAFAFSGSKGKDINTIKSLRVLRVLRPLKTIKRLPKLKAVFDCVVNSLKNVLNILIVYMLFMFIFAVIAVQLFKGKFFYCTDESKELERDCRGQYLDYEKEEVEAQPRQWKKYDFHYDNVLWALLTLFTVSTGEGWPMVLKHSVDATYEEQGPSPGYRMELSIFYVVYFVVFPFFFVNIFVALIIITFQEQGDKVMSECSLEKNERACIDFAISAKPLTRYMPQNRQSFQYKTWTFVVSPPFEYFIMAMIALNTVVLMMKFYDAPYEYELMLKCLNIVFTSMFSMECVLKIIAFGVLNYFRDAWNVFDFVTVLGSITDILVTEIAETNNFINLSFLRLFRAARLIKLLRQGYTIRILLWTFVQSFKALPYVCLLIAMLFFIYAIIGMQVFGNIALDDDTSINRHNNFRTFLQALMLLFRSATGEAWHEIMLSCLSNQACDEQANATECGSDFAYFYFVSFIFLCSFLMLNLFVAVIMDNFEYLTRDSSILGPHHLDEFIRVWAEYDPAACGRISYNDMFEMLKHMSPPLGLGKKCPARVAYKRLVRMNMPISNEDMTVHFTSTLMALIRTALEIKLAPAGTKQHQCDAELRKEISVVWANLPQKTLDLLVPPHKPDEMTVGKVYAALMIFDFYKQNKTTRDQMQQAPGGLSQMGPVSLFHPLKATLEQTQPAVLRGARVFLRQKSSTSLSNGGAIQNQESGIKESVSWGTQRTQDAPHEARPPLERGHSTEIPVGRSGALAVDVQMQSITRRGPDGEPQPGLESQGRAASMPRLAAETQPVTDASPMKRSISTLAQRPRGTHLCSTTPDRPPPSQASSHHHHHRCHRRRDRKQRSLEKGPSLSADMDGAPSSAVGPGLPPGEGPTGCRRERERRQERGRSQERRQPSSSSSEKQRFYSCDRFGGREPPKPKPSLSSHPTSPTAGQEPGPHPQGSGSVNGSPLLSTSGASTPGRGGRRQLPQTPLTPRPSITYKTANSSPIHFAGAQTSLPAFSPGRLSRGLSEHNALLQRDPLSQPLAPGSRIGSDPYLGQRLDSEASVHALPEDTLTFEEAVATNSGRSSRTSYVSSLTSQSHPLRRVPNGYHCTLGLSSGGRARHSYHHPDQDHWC
Chain of Voltage-dependent T-type calcium channel subunit alpha-1H (O95180 whole entry): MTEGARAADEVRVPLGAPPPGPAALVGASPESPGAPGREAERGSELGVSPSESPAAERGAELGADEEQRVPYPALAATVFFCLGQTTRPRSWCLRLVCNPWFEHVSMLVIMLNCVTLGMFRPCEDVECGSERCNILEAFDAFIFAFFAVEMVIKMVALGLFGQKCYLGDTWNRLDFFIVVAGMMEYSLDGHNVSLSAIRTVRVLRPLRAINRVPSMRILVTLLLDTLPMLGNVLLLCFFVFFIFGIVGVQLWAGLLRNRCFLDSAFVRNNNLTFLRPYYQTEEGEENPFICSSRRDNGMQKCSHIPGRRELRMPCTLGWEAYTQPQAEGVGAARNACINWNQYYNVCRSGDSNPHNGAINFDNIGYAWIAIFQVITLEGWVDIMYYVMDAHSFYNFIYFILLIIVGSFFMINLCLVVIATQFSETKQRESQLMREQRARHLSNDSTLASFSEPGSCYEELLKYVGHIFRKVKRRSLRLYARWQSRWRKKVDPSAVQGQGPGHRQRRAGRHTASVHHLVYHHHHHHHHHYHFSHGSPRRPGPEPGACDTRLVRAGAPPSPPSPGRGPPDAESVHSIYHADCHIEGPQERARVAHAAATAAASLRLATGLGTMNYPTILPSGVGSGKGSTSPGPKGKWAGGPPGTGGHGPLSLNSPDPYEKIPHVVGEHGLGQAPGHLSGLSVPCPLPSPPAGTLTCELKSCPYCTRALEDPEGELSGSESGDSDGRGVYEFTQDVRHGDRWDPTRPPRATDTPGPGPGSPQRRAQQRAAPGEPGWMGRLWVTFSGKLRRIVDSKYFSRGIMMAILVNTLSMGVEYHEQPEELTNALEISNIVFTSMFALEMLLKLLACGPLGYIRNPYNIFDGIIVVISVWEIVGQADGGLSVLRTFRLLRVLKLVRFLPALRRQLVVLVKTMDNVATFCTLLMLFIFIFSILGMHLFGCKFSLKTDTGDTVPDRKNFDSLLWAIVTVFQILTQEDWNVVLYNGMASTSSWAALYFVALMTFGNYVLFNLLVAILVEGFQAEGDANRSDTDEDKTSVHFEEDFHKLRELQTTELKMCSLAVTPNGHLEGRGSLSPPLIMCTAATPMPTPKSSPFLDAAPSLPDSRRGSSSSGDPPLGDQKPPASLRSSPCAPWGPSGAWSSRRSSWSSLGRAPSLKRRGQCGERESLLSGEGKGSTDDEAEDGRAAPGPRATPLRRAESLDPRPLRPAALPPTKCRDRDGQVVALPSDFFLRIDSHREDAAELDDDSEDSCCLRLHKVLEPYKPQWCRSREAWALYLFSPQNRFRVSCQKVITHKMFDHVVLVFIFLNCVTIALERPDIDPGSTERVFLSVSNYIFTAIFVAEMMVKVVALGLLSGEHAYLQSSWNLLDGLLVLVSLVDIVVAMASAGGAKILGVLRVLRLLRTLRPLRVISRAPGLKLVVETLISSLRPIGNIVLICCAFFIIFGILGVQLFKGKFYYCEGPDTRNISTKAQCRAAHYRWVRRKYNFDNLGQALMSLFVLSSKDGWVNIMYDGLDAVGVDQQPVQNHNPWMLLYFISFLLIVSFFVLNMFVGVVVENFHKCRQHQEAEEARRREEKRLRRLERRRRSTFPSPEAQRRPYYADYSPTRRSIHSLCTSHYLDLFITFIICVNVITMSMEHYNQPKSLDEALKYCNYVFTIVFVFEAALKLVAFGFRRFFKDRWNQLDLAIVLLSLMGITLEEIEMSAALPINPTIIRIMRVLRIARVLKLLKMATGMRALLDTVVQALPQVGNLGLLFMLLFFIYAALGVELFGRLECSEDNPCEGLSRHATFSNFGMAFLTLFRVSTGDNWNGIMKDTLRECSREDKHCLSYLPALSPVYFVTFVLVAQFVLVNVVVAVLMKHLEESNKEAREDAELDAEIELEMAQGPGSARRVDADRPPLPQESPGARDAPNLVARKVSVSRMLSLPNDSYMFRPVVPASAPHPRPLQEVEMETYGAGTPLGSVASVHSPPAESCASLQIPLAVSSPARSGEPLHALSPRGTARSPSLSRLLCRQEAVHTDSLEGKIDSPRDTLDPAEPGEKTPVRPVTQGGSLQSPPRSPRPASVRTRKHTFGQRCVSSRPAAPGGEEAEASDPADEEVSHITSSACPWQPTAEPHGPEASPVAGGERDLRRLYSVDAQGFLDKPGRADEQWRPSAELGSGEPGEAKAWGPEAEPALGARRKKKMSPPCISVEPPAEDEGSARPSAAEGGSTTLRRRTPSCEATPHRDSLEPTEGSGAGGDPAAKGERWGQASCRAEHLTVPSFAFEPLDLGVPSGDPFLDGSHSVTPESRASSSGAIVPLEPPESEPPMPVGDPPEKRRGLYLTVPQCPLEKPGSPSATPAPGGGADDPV

Row | Compound | IC50 [1] [µM] | IC50 [2] [µM] | remaining at 24 h, 120 µM [3] [%] | half-life [4] [h] | EC50 [5] [µM]
1 | CN(Cc1ccc(OCCCN)cc1)c1nc2ccc(Oc3ccc(C#N)cc3)cc2s1 | 65 | 328 |  |  | 
2 | CN(C)CCCOc1ccc(CN(C)c2nc3ccc(Oc4ccc(C#N)cc4)cc3s2)cc1 | 69 | 64 |  |  | 
3 | CN(Cc1ccc(OCCCN)cc1)c1nc2ccc(Oc3ccc(F)cc3)cc2s1 | 98 | 492 |  |  | 
4 | O=C(CC(c1ccccc1)c1ccccc1)N1CCN(C(c2ccccc2)c2ccccc2)CC1 [Z160] | 39 | 45 |  |  | 
5 | CN(Cc1ccc(OCCCN)cc1)c1nc2ccc(Oc3ccc(O)cc3)cc2s1 | 117 | 165 |  |  | 
6 | NCCCOc1ccc(CNc2nc3ccc(Oc4ccccc4)cc3s2)cc1 | 218 | > 1000 |  |  | 
7 | CN(Cc1ccc(OCCCNC(=N)N)cc1)c1nc2ccc(Oc3ccc(O)cc3)cc2s1 | 432 | 332 |  |  | 
8 | NCCCOc1ccc(CNc2nc3ccc(Oc4ccc(F)cc4)cc3s2)cc1.O=C(O)C(F)(F)F | 106 | 688 | 75 | > 24 | 
9 | CN(Cc1ccc(OCCCNC(=N)N)cc1)c1nc2ccc(Oc3ccccc3)cc2s1 | 113 | 498 |  |  | 
10 | N=C(N)NCCCOc1ccc(CNc2nc3ccc(Oc4ccc(F)cc4)cc3s2)cc1 | 244 | 288 |  |  | 
11 | CN(C)CCCOc1ccc(CNc2nc3ccc(Oc4ccc(F)cc4)cc3s2)cc1 | 40 | > 1000 |  |  | 
12 | NC(N)=NCCCOc1ccc(CNc2nc3ccc(Oc4ccccc4)cc3s2)cc1 | 103 | 166 |  |  | 
13 | CN(Cc1ccc(OCCCNC(=N)N)cc1)c1nc2ccc(Oc3ccc(C#N)cc3)cc2s1 | 143 | 153 |  |  | 
14 | CN(Cc1ccc(OCCCNC(=N)N)cc1)c1nc2ccc(Oc3ccc(C(F)(F)F)cc3)cc2s1 | 185 | 212 |  |  | 
15 | CN(C)CCCOc1ccc(CNc2nc3ccc(Oc4cccc(C(F)(F)F)c4)cc3s2)cc1 | 51 | 110 |  |  | 
16 | N=C(N)NCCCOc1ccc(CNc2nc3ccc(Oc4ccc(O)cc4)cc3s2)cc1 | 253 | 319 |  |  | 
17 | CN(C)CCCOc1ccc(CN(C)c2nc3ccc(Oc4ccc(C(F)(F)F)cc4)cc3s2)cc1 | 46 | 54 |  |  | 

Row | Compound | IC50 [1] [µM] | IC50 [2] [µM] | remaining at 24 h, 120 µM [3] [%] | half-life [4] [h] | EC50 [5] [µM]
18 | CN(Cc1ccc(OCCCNC(=N)N)cc1)c1nc2ccc(Oc3ccc(F)cc3)cc2s1 | 100 | 521 |  |  | 
19 | CN(Cc1ccc(OCCCN)cc1)c1nc2ccc(Oc3ccccc3)cc2s1 | 49 | 95 |  |  | 
20 | NCCCOc1ccc(CNc2nc3ccc(Oc4cccc(C(F)(F)F)c4)cc3s2)cc1 | 144 | 171 |  |  | 
21 | N#Cc1ccc(Oc2ccc3nc(NCc4ccc(OCCCNC(=N)N)cc4)sc3c2)cc1 | 368 | 326 |  |  | 
22 | CC(C)[C@H]1c2ccc(F)cc2CC[C@@]1(CCN(C)CCCc1nc2ccccc2[nH]1)OC(=O)C1CC1 | 7 |  |  |  | 
23 | N=C(N)NCCCOc1ccc(CNc2nc3ccc(Oc4cccc(C(F)(F)F)c4)cc3s2)cc1 | 130 | 270 |  |  | 
24 | CN(Cc1ccc(OCCCNC(=N)N)cc1)c1nc2ccc(Oc3cccc(C(F)(F)F)c3)cc2s1.O=C(O)C(F)(F)F | 202 | 771 | 95 | > 24 | 
25 | N#Cc1ccc(Oc2ccc3nc(NCc4ccc(OCCCN)cc4)sc3c2)cc1 | 41 | 109 |  |  | 
26 | NCCCOc1ccc(CNc2nc3ccc(Oc4ccc(O)cc4)cc3s2)cc1 | 205 | 300 |  |  | 
27 | NCCCOc1ccccc1C(=O)N(Cc1ccc(OCCCN=C(N)N)cc1)c1nc2ccc(Oc3ccc(O)cc3)cc2s1 |  |  |  |  | 5.7
28 | CN(C)CCCOc1ccc(CNc2nc3ccc(Oc4ccc(C#N)cc4)cc3s2)cc1 | 105 | 41 |  |  | 
29 | NCCCOc1ccc(CN(C(=O)c2ccccc2OCCCN)c2nc3ccc(Oc4ccc(O)cc4)cc3s2)cc1 |  |  |  |  | 5.4
30 | CN(Cc1ccc(OCCCN)cc1)c1nc2ccc(Oc3ccc(C(F)(F)F)cc3)cc2s1 | 283 | 248 |  |  | 
31 | NCCCOc1ccc(CNc2nc3ccc(Oc4ccc(C(F)(F)F)cc4)cc3s2)cc1 | 59 | 112 |  |  | 
32 | CN(Cc1ccc(OCCCN)cc1)c1nc2ccc(Oc3cccc(C(F)(F)F)c3)cc2s1.O=C(O)C(F)(F)F | 77 | 239 | 100 | > 24 | 
33 | N=C(N)NCCCOc1ccc(CNc2nc3ccc(Oc4ccc(C(F)(F)F)cc4)cc3s2)cc1.O=C(O)C(F)(F)F | 167 | 195 | 91 | > 24 | 
